Reference: PubChem BioAssay (NCI)
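Cultured in 96-well plates, cells were exposed to test compound for 48 hours across five concentrations. TGI: total growth inhibition.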

Key:
Assay in all cases: NCI anticancer screen, dose series, 48 h
786-0 renal = system: 786-0 renal
A498 renal = system: A498 renal
A549 NSCLC = system: A549 NSCLC
ACHN renal = system: ACHN renal
BT-549 breast = system: BT-549 breast
CAKI-1 renal = system: CAKI-1 renal
CCRF-CEM leukemia = system: CCRF-CEM leukemia
COLO 205 colon = system: COLO 205 colon
DU-145 prostate = system: DU-145 prostate
EKVX NSCLC = system: EKVX NSCLC
HCC-2998 colon = system: HCC-2998 colon
HCT-116 colon = system: HCT-116 colon
HCT-15 colon = system: HCT-15 colon
HL-60(TB) leukemia = system: HL-60(TB) leukemia
HOP-62 NSCLC = system: HOP-62 NSCLC
HOP-92 NSCLC = system: HOP-92 NSCLC
HS 578T breast = system: HS 578T breast
HT29 colon = system: HT29 colon
IGROV1 ovarian = system: IGROV1 ovarian
KM12 colon = system: KM12 colon
LOX IMVI melanoma = system: LOX IMVI melanoma
M14 melanoma = system: M14 melanoma
MALME-3M melanoma = system: MALME-3M melanoma
MCF7 breast = system: MCF7 breast
MDA-MB-231 breast = system: MDA-MB-231 breast
MDA-MB-435 = system: MDA-MB-435
MDA-N = system: MDA-N
MOLT-4 leukemia = system: MOLT-4 leukemia
NCI-H226 lung = system: NCI-H226 lung
NCI-H23 lung = system: NCI-H23 lung
NCI-H460 lung = system: NCI-H460 lung
NCI-H522 lung = system: NCI-H522 lung
NCI/ADR-RES ovarian = system: NCI/ADR-RES ovarian
OVCAR-3 ovarian = system: OVCAR-3 ovarian
OVCAR-4 ovarian = system: OVCAR-4 ovarian
OVCAR-5 ovarian = system: OVCAR-5 ovarian
OVCAR-8 ovarian = system: OVCAR-8 ovarian
PC-3 prostate = system: PC-3 prostate
RPMI-8226 leukemia = system: RPMI-8226 leukemia
RXF 393 renal = system: RXF 393 renal
SF-268 CNS = system: SF-268 CNS
SF-295 CNS = system: SF-295 CNS
SF-539 CNS = system: SF-539 CNS
SK-MEL-2 melanoma = system: SK-MEL-2 melanoma
SK-MEL-28 melanoma = system: SK-MEL-28 melanoma
SK-MEL-5 melanoma = system: SK-MEL-5 melanoma
SK-OV-3 ovarian = system: SK-OV-3 ovarian
SN12C renal = system: SN12C renal
SNB-75 CNS = system: SNB-75 CNS
SR leukemia = system: SR leukemia
SW-620 colon = system: SW-620 colon
T-47D breast = system: T-47D breast
TK-10 renal = system: TK-10 renal
U251 CNS = system: U251 CNS
UACC-62 melanoma = system: UACC-62 melanoma
UO-31 renal = system: UO-31 renal
K-562 leukemia = system: K-562 leukemia
SNB-19 CNS = system: SNB-19 CNS
UACC-257 melanoma = system: UACC-257 melanoma

Structure (SMILES): Cc1ccc(N=Nc2c(C)nn(C(=O)CC(=O)Nc3ccccc3)c2C)cc1C
- TGI (786-0 renal): > 100 µM
- TGI (A498 renal): > 100 µM
- TGI (A549 NSCLC): > 100 µM
- TGI (ACHN renal): > 100 µM
- TGI (BT-549 breast): > 100 µM
- TGI (CAKI-1 renal): > 100 µM
- TGI (CCRF-CEM leukemia): > 100 µM
- TGI (COLO 205 colon): > 100 µM
- TGI (DU-145 prostate): > 100 µM
- TGI (EKVX NSCLC): > 100 µM
- TGI (HCC-2998 colon): > 100 µM
- TGI (HCT-116 colon): > 100 µM
- TGI (HCT-15 colon): > 100 µM
- TGI (HL-60(TB) leukemia): > 100 µM
- TGI (HOP-62 NSCLC): > 100 µM
- TGI (HOP-92 NSCLC): > 100 µM
- TGI (HS 578T breast): > 100 µM
- TGI (HT29 colon): > 100 µM
- TGI (IGROV1 ovarian): > 100 µM
- TGI (KM12 colon): > 100 µM
- TGI (LOX IMVI melanoma): > 100 µM
- TGI (M14 melanoma): > 100 µM
- TGI (MALME-3M melanoma): > 100 µM
- TGI (MCF7 breast): > 100 µM
- TGI (MDA-MB-231 breast): > 100 µM
- TGI (MDA-MB-435): > 100 µM
- TGI (MDA-N): > 100 µM
- TGI (MOLT-4 leukemia): > 100 µM
- TGI (NCI-H226 lung): > 100 µM
- TGI (NCI-H23 lung): > 100 µM
- TGI (NCI-H460 lung): > 100 µM
- TGI (NCI-H522 lung): > 100 µM
- TGI (NCI/ADR-RES ovarian): > 100 µM
- TGI (OVCAR-3 ovarian): > 100 µM
- TGI (OVCAR-4 ovarian): > 100 µM
- TGI (OVCAR-5 ovarian): > 100 µM
- TGI (OVCAR-8 ovarian): > 100 µM
- TGI (PC-3 prostate): > 100 µM
- TGI (RPMI-8226 leukemia): > 100 µM
- TGI (RXF 393 renal): > 100 µM
- TGI (SF-268 CNS): > 100 µM
- TGI (SF-295 CNS): > 100 µM
- TGI (SF-539 CNS): > 100 µM
- TGI (SK-MEL-2 melanoma): > 100 µM
- TGI (SK-MEL-28 melanoma): > 100 µM
- TGI (SK-MEL-5 melanoma): > 100 µM
- TGI (SK-OV-3 ovarian): > 100 µM
- TGI (SN12C renal): > 100 µM
- TGI (SNB-75 CNS): > 100 µM
- TGI (SR leukemia): > 100 µM
- TGI (SW-620 colon): > 100 µM
- TGI (T-47D breast): > 100 µM
- TGI (TK-10 renal): > 100 µM
- TGI (U251 CNS): > 100 µM
- TGI (UACC-62 melanoma): > 100 µM
- TGI (UO-31 renal): > 100 µM

Structure (SMILES): Oc1ccc(/C=C\c2nnc(/C=C\c3ccc(O)c(O)c3)s2)cc1O
- TGI (786-0 renal): 38.6 µM
- TGI (A498 renal): 26.2 µM
- TGI (A549 NSCLC): > 52.8 µM
- TGI (ACHN renal): 15.2 µM
- TGI (BT-549 breast): 40.6 µM
- TGI (CAKI-1 renal): 16.8 µM
- TGI (CCRF-CEM leukemia): 2.16 µM
- TGI (COLO 205 colon): 22.5 µM
- TGI (DU-145 prostate): 18.8 µM
- TGI (EKVX NSCLC): > 54.6 µM
- TGI (HCC-2998 colon): 23.9 µM
- TGI (HCT-116 colon): 13 µM
- TGI (HCT-15 colon): 16.9 µM
- TGI (HL-60(TB) leukemia): 2.94 µM
- TGI (HOP-62 NSCLC): 21.8 µM
- TGI (HOP-92 NSCLC): 29.6 µM
- TGI (HS 578T breast): 28.7 µM
- TGI (HT29 colon): > 75.8 µM
- TGI (IGROV1 ovarian): 20.7 µM
- TGI (K-562 leukemia): > 27.9 µM
- TGI (KM12 colon): 18.9 µM
- TGI (LOX IMVI melanoma): > 55.2 µM
- TGI (M14 melanoma): 26 µM
- TGI (MALME-3M melanoma): 17.7 µM
- TGI (MCF7 breast): 12.8 µM
- TGI (MDA-MB-231 breast): 56.2 µM
- TGI (MDA-MB-435): 15.1 µM
- TGI (MDA-N): 20.8 µM
- TGI (MOLT-4 leukemia): 11.7 µM
- TGI (NCI-H226 lung): 20 µM
- TGI (NCI-H23 lung): 17.7 µM
- TGI (NCI-H460 lung): 15.6 µM
- TGI (NCI-H522 lung): 3.29 µM
- TGI (NCI/ADR-RES ovarian): > 59.2 µM
- TGI (OVCAR-3 ovarian): 16.3 µM
- TGI (OVCAR-4 ovarian): 16 µM
- TGI (OVCAR-5 ovarian): > 86.5 µM
- TGI (OVCAR-8 ovarian): > 48.4 µM
- TGI (PC-3 prostate): 29.3 µM
- TGI (RXF 393 renal): 18.5 µM
- TGI (SF-268 CNS): 14.8 µM
- TGI (SF-295 CNS): 24.8 µM
- TGI (SF-539 CNS): 13.8 µM
- TGI (SK-MEL-2 melanoma): 40.7 µM
- TGI (SK-MEL-28 melanoma): 25.2 µM
- TGI (SK-MEL-5 melanoma): 13.9 µM
- TGI (SK-OV-3 ovarian): 26.5 µM
- TGI (SN12C renal): 24 µM
- TGI (SNB-19 CNS): 23.2 µM
- TGI (SNB-75 CNS): 15.3 µM
- TGI (SR leukemia): 5.22 µM
- TGI (SW-620 colon): 13.3 µM
- TGI (T-47D breast): 5.37 µM
- TGI (TK-10 renal): 21.4 µM
- TGI (U251 CNS): 13.5 µM
- TGI (UACC-257 melanoma): 35.7 µM
- TGI (UACC-62 melanoma): 14 µM
- TGI (UO-31 renal): 7.78 µM
